According to the kinase profiling compilation of Christmann-Franck et al. (2016):

What was measured:
Experiment in all cases: radiometric filter-binding kinase assay
MAP3K1 (human) = MAP3K1 (human) (UniProt Q13233)
LCK (mouse) = conditions: accession and sequence are those of the human protein
IGF1R (human) = IGF1R (human) (UniProt P08069)
PAK7 (human) = PAK7 (human) (UniProt Q9P286)
HIPK1 (human) = HIPK1 (human) (UniProt Q86Z02)
MAPK11 (human) = MAPK11 (human) (UniProt Q15759)
MAP3K7 TAB1 (human) = MAP3K7 TAB1 (human) (UniProt Q15750+O43318)
PRKAA1 or PRKAA2 (rat) = conditions: accession and sequence are those of the human protein
INSR (human) = INSR (human) (UniProt P06213)
MAP3K9 (human) = MAP3K9 (human) (UniProt P80192)
ROCK2 (rat) = conditions: accession and sequence are those of the human protein
DAPK1 (human) = DAPK1 (human) (UniProt P53355)
EPHA4 (human) = EPHA4 (human) (UniProt P54764)
PKN2 (human) = PKN2 (human) (UniProt Q16513)
MARK4 (human) = MARK4 (human) (UniProt Q96L34)
[1] = test system: AKT2 (human), P31751 [S474D]
CSK (human) = CSK (human) (UniProt P41240)
EPHB4 (human) = EPHB4 (human) (UniProt P54760)
CAMKK2 (human) = CAMKK2 (human) (UniProt Q96RR4)
MAPK1 (human) = MAPK1 (human) (UniProt P28482)
HIPK3 (human) = HIPK3 (human) (UniProt Q9H422)
PAK6 (human) = PAK6 (human) (UniProt Q9NQU5)
PRKCZ (human) = PRKCZ (human) (UniProt Q05513)
CLK2 (human) = CLK2 (human) (UniProt P49760)
SYK (human) = SYK (human) (UniProt P43405)
EPHB1 (human) = EPHB1 (human) (UniProt P54762)
MAPK13 (human) = MAPK13 (human) (UniProt O15264)
SRC (human) = SRC (human) (UniProt P12931)
YES1 (human) = YES1 (human) (UniProt P07947)
MAP3K5 (human) = MAP3K5 (human) (UniProt Q99683)
PLK1 (human) = PLK1 (human) (UniProt P53350)
EPHB3 (human) = EPHB3 (human) (UniProt P54753)
BRSK2 (human) = BRSK2 (human) (UniProt Q8IWQ3)
RPS6KA5 KD1 KD2 (human) = RPS6KA5 KD1 KD2 (human) (UniProt O75582)
HIPK2 (human) = HIPK2 (human) (UniProt Q9H2X6)
GSK3B (human) = GSK3B (human) (UniProt P49841)

Sequence of INSR (human) (P06213 whole entry, looked up): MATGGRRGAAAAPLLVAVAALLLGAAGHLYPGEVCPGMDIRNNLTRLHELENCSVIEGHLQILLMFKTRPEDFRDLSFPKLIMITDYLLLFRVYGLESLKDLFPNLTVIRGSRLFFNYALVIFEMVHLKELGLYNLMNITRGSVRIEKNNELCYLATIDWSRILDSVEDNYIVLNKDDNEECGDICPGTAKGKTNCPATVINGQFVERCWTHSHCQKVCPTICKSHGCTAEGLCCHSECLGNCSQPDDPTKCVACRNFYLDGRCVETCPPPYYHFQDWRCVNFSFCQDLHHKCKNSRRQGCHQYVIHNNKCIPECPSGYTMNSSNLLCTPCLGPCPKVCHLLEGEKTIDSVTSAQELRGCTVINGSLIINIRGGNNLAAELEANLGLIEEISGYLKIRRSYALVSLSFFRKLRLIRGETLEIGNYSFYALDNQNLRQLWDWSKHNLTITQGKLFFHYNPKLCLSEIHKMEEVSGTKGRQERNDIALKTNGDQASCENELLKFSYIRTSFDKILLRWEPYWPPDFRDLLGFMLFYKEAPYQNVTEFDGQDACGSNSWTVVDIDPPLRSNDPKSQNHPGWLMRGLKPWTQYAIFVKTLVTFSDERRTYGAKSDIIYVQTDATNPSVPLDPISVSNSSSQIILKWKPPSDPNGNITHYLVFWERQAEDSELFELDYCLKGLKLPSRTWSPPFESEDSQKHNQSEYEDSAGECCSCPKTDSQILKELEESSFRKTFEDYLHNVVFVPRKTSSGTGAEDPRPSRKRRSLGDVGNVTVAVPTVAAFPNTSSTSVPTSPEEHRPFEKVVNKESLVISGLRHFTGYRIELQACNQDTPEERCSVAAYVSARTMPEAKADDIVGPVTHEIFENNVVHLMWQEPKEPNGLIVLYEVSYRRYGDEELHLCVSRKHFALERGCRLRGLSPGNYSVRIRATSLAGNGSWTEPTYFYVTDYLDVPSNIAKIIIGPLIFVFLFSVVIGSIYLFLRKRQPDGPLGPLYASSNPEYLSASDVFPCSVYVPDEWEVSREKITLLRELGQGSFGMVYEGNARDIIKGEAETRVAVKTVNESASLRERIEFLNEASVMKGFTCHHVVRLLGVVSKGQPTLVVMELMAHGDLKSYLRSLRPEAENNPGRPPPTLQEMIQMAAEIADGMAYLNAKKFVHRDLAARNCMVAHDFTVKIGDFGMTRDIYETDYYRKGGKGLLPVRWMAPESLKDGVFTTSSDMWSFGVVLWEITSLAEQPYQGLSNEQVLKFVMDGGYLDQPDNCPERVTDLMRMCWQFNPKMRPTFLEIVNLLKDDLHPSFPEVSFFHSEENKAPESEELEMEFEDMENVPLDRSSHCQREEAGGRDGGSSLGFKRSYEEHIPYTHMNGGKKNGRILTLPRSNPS
Sequence of MAP3K5 (human) (Q99683 whole entry, looked up): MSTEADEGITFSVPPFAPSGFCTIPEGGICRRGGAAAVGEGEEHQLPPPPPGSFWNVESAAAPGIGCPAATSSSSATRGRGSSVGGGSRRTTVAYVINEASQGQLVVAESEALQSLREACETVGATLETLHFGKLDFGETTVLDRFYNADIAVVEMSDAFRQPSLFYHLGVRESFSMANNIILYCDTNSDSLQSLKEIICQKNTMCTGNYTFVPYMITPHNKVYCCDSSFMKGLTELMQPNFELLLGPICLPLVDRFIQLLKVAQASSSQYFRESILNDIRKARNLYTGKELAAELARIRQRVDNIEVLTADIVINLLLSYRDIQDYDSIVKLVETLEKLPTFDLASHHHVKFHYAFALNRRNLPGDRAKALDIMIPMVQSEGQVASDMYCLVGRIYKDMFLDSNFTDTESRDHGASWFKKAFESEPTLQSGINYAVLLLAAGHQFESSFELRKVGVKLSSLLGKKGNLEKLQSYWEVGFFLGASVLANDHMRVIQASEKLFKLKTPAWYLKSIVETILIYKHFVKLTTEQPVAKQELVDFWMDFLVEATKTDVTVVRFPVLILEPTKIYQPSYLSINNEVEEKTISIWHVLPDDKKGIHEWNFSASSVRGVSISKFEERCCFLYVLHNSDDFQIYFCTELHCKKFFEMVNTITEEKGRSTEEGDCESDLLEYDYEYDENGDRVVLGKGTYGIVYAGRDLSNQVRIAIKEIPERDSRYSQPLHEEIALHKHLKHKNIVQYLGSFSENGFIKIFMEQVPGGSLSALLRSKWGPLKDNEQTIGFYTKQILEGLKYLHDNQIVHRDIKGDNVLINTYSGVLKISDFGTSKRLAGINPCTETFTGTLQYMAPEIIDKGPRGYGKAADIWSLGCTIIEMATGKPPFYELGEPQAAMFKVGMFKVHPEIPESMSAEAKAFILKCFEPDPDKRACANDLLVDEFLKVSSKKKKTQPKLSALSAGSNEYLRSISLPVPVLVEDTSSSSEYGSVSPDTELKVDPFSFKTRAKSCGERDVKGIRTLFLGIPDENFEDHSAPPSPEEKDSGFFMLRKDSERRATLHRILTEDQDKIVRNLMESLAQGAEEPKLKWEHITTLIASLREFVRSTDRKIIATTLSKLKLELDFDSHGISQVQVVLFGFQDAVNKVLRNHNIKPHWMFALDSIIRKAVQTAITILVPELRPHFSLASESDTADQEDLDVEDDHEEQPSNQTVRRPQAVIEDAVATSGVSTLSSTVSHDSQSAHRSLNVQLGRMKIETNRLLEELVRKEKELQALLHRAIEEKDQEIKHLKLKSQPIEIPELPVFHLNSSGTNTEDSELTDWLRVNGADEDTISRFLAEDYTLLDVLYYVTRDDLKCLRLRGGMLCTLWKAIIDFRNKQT
Sequence of AKT2 (human), P31751 [S474D] (P31751 whole entry S474D, looked up): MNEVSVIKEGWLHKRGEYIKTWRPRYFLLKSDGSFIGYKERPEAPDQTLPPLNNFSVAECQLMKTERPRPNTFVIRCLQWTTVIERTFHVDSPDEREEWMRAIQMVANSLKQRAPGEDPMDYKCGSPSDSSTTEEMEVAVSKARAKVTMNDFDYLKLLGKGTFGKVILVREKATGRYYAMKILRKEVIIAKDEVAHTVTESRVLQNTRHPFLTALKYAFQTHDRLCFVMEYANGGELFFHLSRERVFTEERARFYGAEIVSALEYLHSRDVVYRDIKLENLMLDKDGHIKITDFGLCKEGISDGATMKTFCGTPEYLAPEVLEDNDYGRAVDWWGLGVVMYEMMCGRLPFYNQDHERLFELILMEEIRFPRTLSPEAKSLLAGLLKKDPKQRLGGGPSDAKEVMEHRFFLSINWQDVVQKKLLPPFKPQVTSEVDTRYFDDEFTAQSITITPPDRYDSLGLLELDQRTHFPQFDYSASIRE
Sequence of EPHB4 (human) (P54760 whole entry, looked up): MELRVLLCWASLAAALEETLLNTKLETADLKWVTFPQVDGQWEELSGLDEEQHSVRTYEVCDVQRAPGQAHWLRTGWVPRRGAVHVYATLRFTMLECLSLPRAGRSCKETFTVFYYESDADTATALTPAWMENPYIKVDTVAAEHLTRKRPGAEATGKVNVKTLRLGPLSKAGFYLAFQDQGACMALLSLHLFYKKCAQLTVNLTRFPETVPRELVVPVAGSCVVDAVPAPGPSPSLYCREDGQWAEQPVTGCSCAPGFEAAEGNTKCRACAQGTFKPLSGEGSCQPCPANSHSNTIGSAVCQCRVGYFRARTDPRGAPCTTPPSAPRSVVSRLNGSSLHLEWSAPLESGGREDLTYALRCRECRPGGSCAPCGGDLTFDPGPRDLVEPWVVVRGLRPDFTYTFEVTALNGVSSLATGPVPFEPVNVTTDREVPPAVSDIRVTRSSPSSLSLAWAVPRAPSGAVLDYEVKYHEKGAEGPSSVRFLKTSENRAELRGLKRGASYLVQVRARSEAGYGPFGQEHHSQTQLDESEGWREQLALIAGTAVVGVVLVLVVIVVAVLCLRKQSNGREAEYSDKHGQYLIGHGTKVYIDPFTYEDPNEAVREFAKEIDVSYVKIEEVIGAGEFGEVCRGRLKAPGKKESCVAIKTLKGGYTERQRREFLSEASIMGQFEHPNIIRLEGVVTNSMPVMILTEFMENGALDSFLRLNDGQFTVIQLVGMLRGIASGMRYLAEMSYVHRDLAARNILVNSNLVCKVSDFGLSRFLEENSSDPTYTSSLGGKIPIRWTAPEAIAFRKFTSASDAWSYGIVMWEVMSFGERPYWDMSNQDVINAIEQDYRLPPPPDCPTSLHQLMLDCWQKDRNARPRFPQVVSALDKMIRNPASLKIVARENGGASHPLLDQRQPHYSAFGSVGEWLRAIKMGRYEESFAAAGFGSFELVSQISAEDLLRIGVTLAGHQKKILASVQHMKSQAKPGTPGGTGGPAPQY
Sequence of PAK6 (human) (Q9NQU5 whole entry, looked up): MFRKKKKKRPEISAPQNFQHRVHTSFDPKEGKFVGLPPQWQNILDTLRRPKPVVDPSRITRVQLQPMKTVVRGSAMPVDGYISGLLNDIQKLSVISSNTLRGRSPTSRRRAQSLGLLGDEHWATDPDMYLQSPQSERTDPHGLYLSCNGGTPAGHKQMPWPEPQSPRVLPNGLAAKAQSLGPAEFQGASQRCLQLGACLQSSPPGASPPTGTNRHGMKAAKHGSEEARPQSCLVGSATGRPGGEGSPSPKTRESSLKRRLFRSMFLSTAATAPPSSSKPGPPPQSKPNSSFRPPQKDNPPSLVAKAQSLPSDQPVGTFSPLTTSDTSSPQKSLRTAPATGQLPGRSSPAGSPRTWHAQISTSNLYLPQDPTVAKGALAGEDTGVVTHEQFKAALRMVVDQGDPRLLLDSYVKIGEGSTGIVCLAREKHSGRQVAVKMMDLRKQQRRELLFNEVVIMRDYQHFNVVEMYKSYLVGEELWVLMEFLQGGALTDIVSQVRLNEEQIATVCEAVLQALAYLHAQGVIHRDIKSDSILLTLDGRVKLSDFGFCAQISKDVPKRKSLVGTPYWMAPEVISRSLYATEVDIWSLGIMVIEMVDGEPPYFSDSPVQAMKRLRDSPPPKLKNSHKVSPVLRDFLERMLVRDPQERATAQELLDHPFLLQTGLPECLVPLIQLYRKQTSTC

residual activity (MAP3K1 (human); compound 0.1 µM): 90% | residual activity (MAP3K1 (human); compound 1.0 µM): 83% | residual activity (MAP3K1 (human); compound 10.0 µM): 60% | residual activity (LCK (mouse); compound 0.1 µM): 81% | residual activity (LCK (mouse); compound 1.0 µM): 40% | residual activity (LCK (mouse); compound 10.0 µM): 7% | residual activity (IGF1R (human); compound 0.1 µM): 112% | residual activity (IGF1R (human); compound 1.0 µM): 99% | residual activity (IGF1R (human); compound 10.0 µM): 89% | residual activity (PAK7 (human); compound 0.1 µM): 95% | residual activity (PAK7 (human); compound 1.0 µM): 82% | residual activity (PAK7 (human); compound 10.0 µM): 72% | residual activity (HIPK1 (human); compound 0.1 µM): 97% | residual activity (HIPK1 (human); compound 1.0 µM): 99% | residual activity (HIPK1 (human); compound 10.0 µM): 85% | residual activity (MAPK11 (human); compound 1.0 µM): 104% | residual activity (MAPK11 (human); compound 10.0 µM): 96% | residual activity (MAP3K7 TAB1 (human); compound 0.1 µM): 84% | residual activity (MAP3K7 TAB1 (human); compound 1.0 µM): 44% | residual activity (MAP3K7 TAB1 (human); compound 10.0 µM): 13% | residual activity (PRKAA1 or PRKAA2 (rat); compound 0.1 µM): 96% | residual activity (PRKAA1 or PRKAA2 (rat); compound 1.0 µM): 59% | residual activity (PRKAA1 or PRKAA2 (rat); compound 10.0 µM): 18% | residual activity (INSR (human); compound 0.1 µM): 105% | residual activity (INSR (human); compound 1.0 µM): 107% | residual activity (INSR (human); compound 10.0 µM): 93% | residual activity (MAP3K9 (human); compound 0.1 µM): 104% | residual activity (MAP3K9 (human); compound 1.0 µM): 70% | residual activity (ROCK2 (rat); compound 0.1 µM): 98% | residual activity (ROCK2 (rat); compound 1.0 µM): 86% | residual activity (ROCK2 (rat); compound 10.0 µM): 85% | residual activity (DAPK1 (human); compound 0.1 µM): 89% | residual activity (DAPK1 (human); compound 1.0 µM): 91% | residual activity (DAPK1 (human); compound 10.0 µM): 72% | residual activity (EPHA4 (human); compound 0.1 µM): 84% | residual activity (EPHA4 (human); compound 1.0 µM): 83% | residual activity (EPHA4 (human); compound 10.0 µM): 57% | residual activity (PKN2 (human); compound 0.1 µM): 65% | residual activity (PKN2 (human); compound 1.0 µM): 69% | residual activity (PKN2 (human); compound 10.0 µM): 37% | residual activity (MARK4 (human); compound 0.1 µM): 75% | residual activity (MARK4 (human); compound 1.0 µM): 58% | residual activity (MARK4 (human); compound 10.0 µM): 24% | residual activity ([1]; compound 0.1 µM): 77% | residual activity ([1]; compound 1.0 µM): 91% | residual activity ([1]; compound 10.0 µM): 58% | residual activity (CSK (human); compound 0.1 µM): 95% | residual activity (CSK (human); compound 1.0 µM): 103% | residual activity (CSK (human); compound 10.0 µM): 72% | residual activity (EPHB4 (human); compound 0.1 µM): 96% | residual activity (EPHB4 (human); compound 1.0 µM): 89% | residual activity (EPHB4 (human); compound 10.0 µM): 46% | residual activity (CAMKK2 (human); compound 0.1 µM): 43% | residual activity (CAMKK2 (human); compound 1.0 µM): 13% | residual activity (CAMKK2 (human); compound 10.0 µM): 8% | residual activity (MAPK1 (human); compound 0.1 µM): 89% | residual activity (MAPK1 (human); compound 1.0 µM): 89% | residual activity (MAPK1 (human); compound 10.0 µM): 107% | residual activity (HIPK3 (human); compound 0.1 µM): 104% | residual activity (HIPK3 (human); compound 10.0 µM): 90% | residual activity (PAK6 (human); compound 0.1 µM): 108% | residual activity (PAK6 (human); compound 1.0 µM): 107% | residual activity (PAK6 (human); compound 10.0 µM): 100% | residual activity (PRKCZ (human); compound 0.1 µM): 88% | residual activity (PRKCZ (human); compound 1.0 µM): 93% | residual activity (PRKCZ (human); compound 10.0 µM): 55% | residual activity (CLK2 (human); compound 0.1 µM): 67% | residual activity (CLK2 (human); compound 1.0 µM): 21% | residual activity (CLK2 (human); compound 10.0 µM): 5% | residual activity (SYK (human); compound 0.1 µM): 82% | residual activity (SYK (human); compound 1.0 µM): 80% | residual activity (SYK (human); compound 10.0 µM): 36% | residual activity (EPHB1 (human); compound 0.1 µM): 117% | residual activity (EPHB1 (human); compound 10.0 µM): 100% | residual activity (MAPK13 (human); compound 0.1 µM): 89% | residual activity (MAPK13 (human); compound 1.0 µM): 110% | residual activity (MAPK13 (human); compound 10.0 µM): 72% | residual activity (SRC (human); compound 1.0 µM): 52% | residual activity (SRC (human); compound 10.0 µM): 16% | residual activity (YES1 (human); compound 0.1 µM): 73% | residual activity (YES1 (human); compound 1.0 µM): 21% | residual activity (YES1 (human); compound 10.0 µM): 7% | residual activity (MAP3K5 (human); compound 0.1 µM): 93% | residual activity (MAP3K5 (human); compound 1.0 µM): 90% | residual activity (MAP3K5 (human); compound 10.0 µM): 91% | residual activity (PLK1 (human); compound 0.1 µM): 97% | residual activity (PLK1 (human); compound 1.0 µM): 100% | residual activity (PLK1 (human); compound 10.0 µM): 91% | residual activity (EPHB3 (human); compound 0.1 µM): 88% | residual activity (EPHB3 (human); compound 1.0 µM): 75% | residual activity (EPHB3 (human); compound 10.0 µM): 48% | residual activity (BRSK2 (human); compound 0.1 µM): 88% | residual activity (BRSK2 (human); compound 1.0 µM): 68% | residual activity (BRSK2 (human); compound 10.0 µM): 20% | residual activity (RPS6KA5 KD1 KD2 (human); compound 0.1 µM): 91% | residual activity (RPS6KA5 KD1 KD2 (human); compound 1.0 µM): 83% | residual activity (RPS6KA5 KD1 KD2 (human); compound 10.0 µM): 87% | residual activity (HIPK2 (human); compound 0.1 µM): 93% | residual activity (HIPK2 (human); compound 1.0 µM): 91% | residual activity (HIPK2 (human); compound 10.0 µM): 56% | residual activity (GSK3B (human); compound 0.1 µM): 81% | residual activity (GSK3B (human); compound 1.0 µM): 83% | residual activity (GSK3B (human); compound 10.0 µM): 62%
SMILES: c1ccc2c(-c3cnn4cc(-c5ccc(N6CCNCC6)cc5)cnc34)ccnc2c1
